Source: PubChem BioAssay (NCI)
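Assay format: 96-well plates, 48-hour exposure. At the TGI there is no net growth.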

Key:
Test in all cases: inhibition of tumour cell growth, NCI panel, 48 h
[1] = system: SK-OV-3 ovarian
[2] = system: CCRF-CEM leukemia
[3] = system: MOLT-4 leukemia
[4] = system: SN12C renal
[5] = system: HS 578T breast
[6] = system: MDA-MB-435
[7] = system: OVCAR-3 ovarian
[8] = system: RPMI-8226 leukemia
[9] = system: SK-MEL-28 melanoma
[10] = system: NCI-H23 lung
[11] = system: 786-0 renal
[12] = system: U251 CNS
[13] = system: SF-268 CNS
[14] = system: UACC-62 melanoma
[15] = system: HOP-62 NSCLC
[16] = system: MDA-N
[17] = system: A549 NSCLC
[18] = system: LOX IMVI melanoma
[19] = system: HT29 colon
[20] = system: OVCAR-4 ovarian
[21] = system: PC-3 prostate
[22] = system: M14 melanoma
[23] = system: SF-295 CNS
[24] = system: K-562 leukemia
[25] = system: SW-620 colon
[26] = system: OVCAR-5 ovarian
[27] = system: IGROV1 ovarian
[28] = system: NCI/ADR-RES ovarian
[29] = system: HCT-15 colon
[30] = system: HL-60(TB) leukemia
[31] = system: NCI-H522 lung
[32] = system: ACHN renal
[33] = system: UACC-257 melanoma
[34] = system: HCT-116 colon
[35] = system: SNB-75 CNS
[36] = system: TK-10 renal
[37] = system: SK-MEL-5 melanoma
[38] = system: NCI-H226 lung
[39] = system: EKVX NSCLC
[40] = system: SR leukemia
[41] = system: COLO 205 colon
[42] = system: BT-549 breast
[43] = system: MALME-3M melanoma
[44] = system: DU-145 prostate
[45] = system: MCF7 breast
[46] = system: CAKI-1 renal
[47] = system: UO-31 renal
[48] = system: SK-MEL-2 melanoma
[49] = system: MDA-MB-231 breast
[50] = system: KM12 colon
[51] = system: A498 renal
[52] = system: OVCAR-8 ovarian
[53] = system: T-47D breast
[54] = system: RXF 393 renal
[55] = system: SNB-19 CNS
[56] = system: NCI-H460 lung
[57] = system: HCC-2998 colon
[58] = system: SF-539 CNS
[59] = system: HOP-92 NSCLC

Measured: TGI

O=CN1CCN(CC(O)CN2CCCCC2)CC1 (configuration not stated)
not listed: [56] | [57] | [58] | [59]
> 100 µM: all other assays above

CC(C)(C)OC(=O)NC(Cc1ccc(OC(C)(C)C)cc1)C(=O)N[C@H]1CCC[C@H]1C(=O)NC(Cc1ccccc1)C(=O)N1CCCC1C(N)=O (some centres not stated)
not listed: [30] | [42]
> 100 µM: all other assays above
